Reference: PubChem BioAssay AID1963858 (Molecular Pharmacology Branch, DTP, NCI, 2024)
Where “and” joins values, the source holds several entries; their conditions need not be identical. Identical values can stand only once.

Test system: HOP-62 multicell spheroids with HUVEC/MSC, viability
Test: Anticancer human tumor HOP-62 cell line growth inhibition [KRAS2];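 note: viability read after a week of compound exposure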;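 for viability, T/C: 100% = DMSO vehicle-treated spheroids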
Conditions: for viability, T/C: stronger effect = lower value
How it was run: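 Combination screen of spheroid viability in tumor-cell co-cultures with endothelial (HUVEC) and mesenchymal stem cell stroma. Each agent was tested in half-log dilutions, topping at clinical Cmax or at 10 microM without a known Cmax.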

[1] = curve of first compound, second compound 0.1 µM
[2] = curve of first compound, second compound 0.316 µM
[3] = curve of first compound, second compound 1 µM
[4] = curve of first compound, second compound 3.16 µM
[5] = curve of first compound, second compound 10 µM
[6] = second compound 0.1 µM, first compound 0.0316 µM
[7] = second compound 0.1 µM, first compound 0.1 µM
[8] = second compound 0.1 µM, first compound 0.316 µM
[9] = second compound 0.1 µM, first compound 1 µM
[10] = second compound 0.1 µM, first compound 3.16 µM
[11] = second compound 0.1 µM, first compound 10 µM
[12] = second compound 0.316 µM, first compound 0.0316 µM
[13] = second compound 0.316 µM, first compound 0.1 µM
[14] = second compound 0.316 µM, first compound 0.316 µM
[15] = second compound 0.316 µM, first compound 1 µM
[16] = second compound 0.316 µM, first compound 3.16 µM
[17] = second compound 0.316 µM, first compound 10 µM
[18] = second compound 1 µM, first compound 0.0316 µM
[19] = second compound 1 µM, first compound 0.1 µM
[20] = second compound 1 µM, first compound 0.316 µM
[21] = second compound 1 µM, first compound 1 µM
[22] = second compound 1 µM, first compound 3.16 µM
[23] = second compound 1 µM, first compound 10 µM
[24] = second compound 3.16 µM, first compound 0.0316 µM
[25] = second compound 3.16 µM, first compound 0.1 µM
[26] = second compound 3.16 µM, first compound 0.316 µM
[27] = second compound 3.16 µM, first compound 1 µM
[28] = second compound 3.16 µM, first compound 3.16 µM
[29] = second compound 3.16 µM, first compound 10 µM
[30] = second compound 10 µM, first compound 0.0316 µM
[31] = second compound 10 µM, first compound 0.1 µM
[32] = second compound 10 µM, first compound 0.316 µM
[33] = second compound 10 µM, first compound 1 µM
[34] = second compound 10 µM, first compound 3.16 µM
[35] = second compound 10 µM, first compound 10 µM

O=C(c1cc(Cc2n[nH]c(=O)c3ccccc23)ccc1F)N1CCN(C(=O)C2CC2)CC1 + CNCc1ccccc1-c1csc(C(C)Nc2nc(C)nc3cc(OC)c(OC)cc23)c1
IC50 [1]: 7.08 µM
IC50 [2]: 6.81 µM
IC50 [3]: 6.1 µM
IC50 [4]: < 0.0316 µM
IC50 [5]: < 0.0316 µM
viability, T/C [6]: 105%
viability, T/C [7]: 106%
viability, T/C [8]: 97.6%
viability, T/C [9]: 86%
viability, T/C [10]: 65.7%
viability, T/C [11]: 43.3%
viability, T/C [12]: 85.7%
viability, T/C [13]: 84.3%
viability, T/C [14]: 83.2%
viability, T/C [15]: 85.3%
viability, T/C [16]: 65.9%
viability, T/C [17]: 42.1%
viability, T/C [18]: 84.7%
viability, T/C [19]: 85.3%
viability, T/C [20]: 78.9%
viability, T/C [21]: 83.2%
viability, T/C [22]: 59.5%
viability, T/C [23]: 42.8%
viability, T/C [24]: 35.1%
viability, T/C [25]: 35.4%
viability, T/C [26]: 28.4%
viability, T/C [27]: 0.6%
viability, T/C [28]: 42.3%
viability, T/C [29]: 0.43%
viability, T/C [30]: 0.17%
viability, T/C [31]: 0.21%
viability, T/C [32]: 29.1%
viability, T/C [33]: 0.15%
viability, T/C [34]: 0.14%
viability, T/C [35]: 1.69%

CN(C)C/C=C/C(=O)Nc1cc2c(Nc3ccc(F)c(Cl)c3)ncnc2cc1O[C@H]1CCOC1
viability, T/C (compound 0.000316 µM): 105% and 110% and 102% (2×)
viability, T/C (compound 0.001 µM): 114% (2×) and 107% and 102% (2×)
viability, T/C (compound 0.00316 µM): 104% [middle of 5 runs]
viability, T/C (compound 0.01 µM): 104% [middle of 5 runs]
viability, T/C (compound 0.0316 µM): 105% [middle of 5 runs]
viability, T/C (compound 0.1 µM): 102% [middle of 5 runs]
IC50 (curve of compound): > 0.1 µM

COc1cc2nccc(Oc3ccc(NC(=O)C4(C(=O)Nc5ccc(F)cc5)CC4)cc3)c2cc1OC
viability, T/C (compound 0.0316 µM): 96.9% [middle of 5 runs]
viability, T/C (compound 1 µM): 99.2% [middle of 5 runs]
viability, T/C (compound 3.16 µM): 78.9% [middle of 5 runs]

O=C(c1cc(Cc2n[nH]c(=O)c3ccccc23)ccc1F)N1CCN(C(=O)C2CC2)CC1 + CC1OCC2(CCN(c3cnc(Sc4ccnc(N)c4Cl)c(N)n3)CC2)C1N
IC50 [1]: 6.46 µM
IC50 [2]: 5.42 µM
IC50 [3]: 2.28 µM
IC50 [4]: < 0.0316 µM
IC50 [5]: < 0.0316 µM
viability, T/C [6]: 90%
viability, T/C [7]: 84.3%
viability, T/C [8]: 80.8%
viability, T/C [9]: 85.4%
viability, T/C [10]: 66.8%
viability, T/C [11]: 39.8%
viability, T/C [12]: 84.2%
viability, T/C [13]: 83.7%
viability, T/C [14]: 78.6%
viability, T/C [15]: 69.5%
viability, T/C [16]: 57.6%
viability, T/C [17]: 41.1%
viability, T/C [18]: 101%
viability, T/C [19]: 70.1%
viability, T/C [20]: 63.7%
viability, T/C [21]: 65.5%
viability, T/C [22]: 51.2%
viability, T/C [23]: 34.5%
viability, T/C [24]: 44.2%
viability, T/C [25]: 43%
viability, T/C [26]: 40.3%
viability, T/C [27]: 44.1%
viability, T/C [28]: 37%
viability, T/C [29]: 26.1%
viability, T/C [30]: 37.1%
viability, T/C [31]: 40.5%
viability, T/C [32]: 36.8%
viability, T/C [33]: 43.2%
viability, T/C [34]: 32.7%
viability, T/C [35]: 28%

Cn1nccc1Nc1nccc(-c2cc3c(s2)C(C)(C)N(CCN2CCOCC2)C3=O)n1
viability, T/C (compound 0.0316 µM): 98.2% [middle of 5 runs]
viability, T/C (compound 0.1 µM): 103% [middle of 5 runs]
viability, T/C (compound 0.316 µM): 99.5% [middle of 5 runs]
viability, T/C (compound 1 µM): 62.4% [middle of 5 runs]
viability, T/C (compound 3.16 µM): 32.8% [middle of 5 runs]
viability, T/C (compound 10 µM): 30.4% [middle of 5 runs]
IC50 (curve of compound): 1.65 µM [middle of 5 runs]
